{"source": "patent US6207648A", "about": "“Methods of using cytochrome P450 reductase for the enhancement of P450-based anti-cancer gene therapy” (priority 1998, dated 2001)", "key": {"[1]": {"tested_on": "9L/wt cells", "assay": "Intrinsic chemosensitivity of 9L/wt cells to chemically activated CPA and IFA", "format": "cell-based, rat", "method": "9L/wt cells seeded at 2000 cells/ well in 48-well plates were treated for 3-4 hours with increasing concentrations of 4-hydroperoxy-CPA or 4-hydroxyperoxy-IFA (0 to 100 μM). Cells were then incubated in fresh drug-free media and allowed to grow for 4 days. Cell growth as a percent of drug-free controls was then determined by crystal violet staining. Data shown are mean±range for duplicate samples.\nBriefly, culture dishes were washed once with phosphate buffered saline (PBS), stained for 10 minutes with crystal violet (1.25 g crystal violet (Sigma) dissolved in 500 ml containing 50 ml of 37% formaldehyde and 450 ml methanol), and then washed with PBS, twice for 20 minutes per wash. Absorbance values were measured in an SLT Spectra microtiter plate reader using a 595 nm filter. Background absorbance determined from wells containing culture media alone was subtracted from each value."}, "[2]": {"tested_on": "9L gliosarcoma cells (parental, CYP2B1+, CYP2B1+ RED+++)", "assay": "In vitro growth inhibition assay, XTT (Example 1)", "settings": "for increase of cell survival ratio in CYP2B1+ RED+++ cells / rescue of CYP2B1+ and CYP2B1+ RED+++ cells from CPA toxicity: 1 mM CPA, AADP 0.5 mM or DPI 5 μM; for rescue of CYP2B1+ and CYP2B1+ RED+++ cells from CPA toxicity: FIG. 4", "procedure": "Cells (1000/well) seeded in 96-well plates were treated with the indicated concentrations of CPA for 4 days. Corresponding controls received no drug treatment. Cell survival was determined by an XTT calorimetric assay. Data (mean for triplicate samples) were expressed as growth ratio (%), i. e., cell number (XTT activity) in drug treated plates as a percentage of the corresponding drug-free controls.\nCells (500/well) seeded in 96-well plates were treated with 1 mM cyclophosphamide in the absence or presence of the RED inhibitors AADP (0.5 mM) or DPI (5 μM). Corresponding controls received no drug treatment. Cell survival was determined by an XTT colorimetric assay. Data (mean for triplicate samples) are expressed as growth ratio (%), i.e., cell number (XTT activity) in drug treated plates as a percentage of the corresponding drug-free controls and are representative of 2-3 independent experiments. AADP and DPI were added to the cells 30 minutes prior to CPA treatment.\n(B) Growth inhibition assay--Cells (1000/well) seeded in 96 well plates were treated with the indicated concentrations of CPA for 4-5 days. Corresponding controls received no drug treatment. Cell survival was determined by an XTT colorimetric assay, a cell proliferation assay that measures mitochondrial dehydrogenase activity of viable cells (Scudiero, D. A., et al., Cancer Res. 48:4827-4833 (1988))."}, "[3]": {"tested_on": "9L, 9L/2B1 and 9L/2B1/RED cells", "assay": "Adriamycin growth inhibition assay", "format": "cell-based, rat", "method": "The indicated 9L, 9L/2B1 and 9L/2B1/RED clonal cell lines, described in Example 1, were treated with Adriamycin for 2 days at the indicated drug concentrations. Cytotoxicity was measured after 5 days continuous culture using a growth inhibition assay, as described under FIG. 2B of Example 1. […] Data shown are averages of duplicates.\n(§1) Corresponding controls received no drug treatment.\n9L gliosarcoma cell lines stably expressing rat P450 2B1 and rat RED: The following rat 9L gliosarcoma transfectants were those already described in Example 1: P3 and P17, which stably express P450 gene CYP2B1; 9L-lacZ, which stably expresses the E. coli β-galactosidase gene; R26, which stably expresses rat RED but not P450; and PR1, PR7, PR11, which stably express rat P450 2B1 and rat RED."}, "[4]": {"settings": "in vivo; cited from earlier work"}, "[5]": {"tested_on": "9L/pBabe bystander cells", "assay": "Bystander cytotoxicity/co-culture with cell culture inserts", "format": "cell-based, rat", "settings": "Rattus norvegicus, 96 h, 9L/2B6/reductase, 0.67 mM", "method": "FIGS. 18A and 18B are graphs depicting the bystander cytotoxicity of 9L/2B6/reductase and 9L/2B6 cells. In FIG. 18A, bystander cytotoxicity of 9L/2B6/reductase cells is compared to that of 9L/2B6 cells. In both cases, 9L/pBabe served as the bystander cells. 9L/pBabe cells were plated in duplicate at 10^5 cells/well of a 6-well plate (lower chamber). 9L/2B6/reductase cells or 9L/2B6 cells were plated in 25 mm cell culture inserts (upper chamber) at concentrations ranging from 10^4 to 6×10^5 cells, corresponding to ratios of 0.1 to 6 relative to the bystander 9L/pBabe cells growing in the lower chamber, as shown on the x-axis. Cells were incubated in a total volume of 3 ml Dulbecco's minimal essential medium (DMEM), 10% FBS, containing 1 mM CPA, final CPA concentration.\nThe experimental design was the same as in FIG. 18A, except that the final drug concentration was 0.67 mM. Data shown for both panels correspond to the survival of 9L/pBabe bystander cells in the lower chamber.\nBystander cytotoxicity/co-culture experiments: 9L/pBabe cells were plated in duplicate at 10^5 cells/well in the lower chamber of a 6-well Falcon co-culture plate (30 mm diameter wells) (Falcon 3046). 9L/2B6/reductase cells were plated in 25 mm cell culture inserts (0.4 μm pore size; Falcon 3090), at dilutions ranging from 0. 1 to 6 times the number of 9L/pBabe cells plated in the lower chamber. […] Relative cell numbers were quantitated 4 days later by crystal violet staining."}, "[6]": {"tested_on": "human cytochrome P450s", "settings": "cited from earlier work"}, "[7]": {"tested_on": "9L/pBabe, 9L/2B6, 9L/hRED and 9L/2B6/hRED gliosarcoma cells", "procedure": "Cells were seeded at 4000 cells/well in 48-well plates and treated with increasing concentrations of CPA for 4 days. Cell growth in comparison to drug-free controls was determined by crystal violet staining and is presented as mean±SD for n=3 replicates.\nFIG. 21 is a graph depicting the cytotoxic effects of the bioreductive drug TPZ toward 9L/pBabe control cells and 9L cells transduced with retroviruses encoding human RED and/or P450 2B6 under normoxic culture conditions. Cells were seeded at 4000 cells/well in 48-well plates and treated with increasing concentrations of TPZ for 4 days. Cell growth in comparison to drug-free controls was determined by crystal violet staining and is presented as mean±SD for n=3 replicates.\nFIG. 22 is a graph depicting the cytotoxicity of increasing concentrations of TPZ under hypoxic conditions (1% O2) toward 9L tumor cells transduced with retroviruses encoding P450 2B6 and/or human RED. 9L/pBabe cells served as controls. Cells were seeded at 4000 cells/well in 48-well plates and treated with increasing concentrations of TPZ for 4 days. Cell growth in comparison to drug-free controls was determined by crystal violet staining and is presented as mean±SD for n=3 replicates.\nFIGS. 24A, 24B and 24C are graphs depicting the cytotoxic effects of TPZ (5 or 10 μM, as indicated) in combination with increasing concentrations of CPA under normoxic culture conditions (19.6% O2, 5% CO2). The data shown were obtained using 9L/2B6/hRED cells (FIG. 24A), 9L/hRED cells (FIG. 24B) and 9L/pBabe (control) cells (FIG. 24C). Data were compared to the cytotoxicity of increasing concentrations of CPA alone (i. e., in the absence of TPZ) measured using the same pools of tumor cells. Cells were seeded at 4000 cells/well in 48-well plates and then treated with the indicated drug concentrations for 4 days. Cell growth in comparison to drug-free controls (i.e., in the absence of CPA and TPZ) was determined by crystal violet staining and is presented as mean±SD for n=3 replicates.\nFIGS. 25A, 25B and 25C are graphs depicting the cytotoxic effects of TPZ (0.5 or 1.5 μM, as indicated) in combination with increasing concentrations of CPA under hypoxic culture conditions (1% O2, 5% CO2). The data shown were obtained using 9L/2B6/hRED cells (FIG. 25A), 9L/hRED cells (FIG. 25B) and 9L/pBabe (control) cells (FIG. 25C). Data were compared to the cytotoxicity of increasing concentrations of CPA alone (i.e., in the absence of TPZ) measured using the same pools of tumor cells. Cells were seeded at 4000 cells/well in 48-well plates and then treated with the indicated drug concentrations for 4 days. Cell growth in comparison to drug-free controls (i.e., in the absence of CPA and TPZ) was determined by crystal violet staining and is presented as mean±SD for n=3 replicates.\nCytotoxicity assays: To evaluate the chemosensitivity of the P450- and P450/RED-expressing 9L tumor cells, cells were plated in triplicate at 4000 cells/well of a 48-well plate 18-24 hours prior to drug treatment. Cells were then treated with drugs (0 to 1 mM CPA or 0 to 50 μM TPZ, as indicated in each experiment) and placed in a tissue culture incubator maintained under hypoxic conditions (1% O2, 5% CO2, 94% N2) or under normoxic conditions (19.6% O2, 5% CO2, 75.4% N2) for a period of 4 days. 9L/pBabe cells, which were transduced with the empty retroviral plasmid pBabe-puro (see, Example 2), served as controls. Cells remaining after this time were quantitated using a crystal violet/alcohol-extraction assay, as described under Example 2. Data are presented as cell number relative to drug-free controls, mean±SD values for triplicate samples, unless indicated otherwise."}, "[8]": {"tested_on": "rodent and human tumor xenograft models", "settings": "cited from earlier work"}, "[9]": {"tested_on": "9L gliosarcoma cells (parental, CYP2B1+, CYP2B1+ RED+++)", "assay": "In vitro colony formation cytotoxicity assay (Example 1)", "format": "cell-based, rat", "settings": "FIG. 3A", "description": "FIGS. 2A and 2C depict the results of a colony formation cytotoxicity assay.\nFIG. 3A depicts results from a colony formation cytotoxicity assay. […] The survival fraction is expressed as the number of colonies in each treatment group compared to the untreated control.\nas §1"}, "[10]": {"tested_on": "9L tumor cells", "assay": "Control experiment: effect of semicarbazide on cell viability", "format": "cell-based, rat", "settings": "5 mM, up to 48 hours"}, "[11]": {"tested_on": "CYP2C9", "settings": "subset of cancer patients; cited from earlier work"}, "[12]": {"tested_on": "P450 2C9", "settings": "cited from earlier work"}}, "note": "“Also recorded” adds a separate entry of the source. Read-outs that look alike come from different tables or passages of the source.", "data": [{"smiles": "O=P1(N(CCCl)CCCl)NC(OO)CCO1", "note": "(stereo not shown) [4-hydroperoxy-CPA]", "values": [{"measurement": "sensitivity of 9L cells to activated CPA compared to activated IFA", "setting": "[1]; 0 to 100 μM, 3-4 h, 4 days regrowth", "value": "approximately 3 fold"}, {"measurement": "intrinsic sensitivity of 9L cells to activated CPA compared to activated IFA", "setting": "[1]; FIG. 16", "value": "greater intrinsic sensitivity"}]}, {"smiles": "Nc1ccc[n+]([C@@H]2O[C@H](COP(=O)([O-])OP(=O)(O)OC[C@H]3O[C@@H](n4cnc5c(N)ncnc54)[C@H](O)[C@@H]3O)[C@@H](O)[C@H]2O)c1", "note": "[AADP, 3-aminopyridine adenine dinucleotide]", "values": [{"measurement": "toxicity to the cells in absence of CPA", "setting": "[2]; 0.5 mM", "value": "no toxicity to the cells"}, {"measurement": "increase of cell survival ratio in CYP2B1+ RED+++ cells", "setting": "[2]", "value": "2-3 fold"}, {"measurement": "rescue of CYP2B1+ and CYP2B1+ RED+++ cells from CPA toxicity", "setting": "[2]", "value": "partially rescued"}]}, {"smiles": "COc1cccc2c1C(=O)c1c(O)c3c(c(O)c1C2=O)C[C@@](O)(C(=O)CO)C[C@@H]3O[C@H]1C[C@H](N)[C@H](O)[C@H](C)O1", "note": "[Adriamycin, doxorubicin]", "values": [{"measurement": "toxicity to 9L and 9L/lacZ cells without P450 metabolism", "setting": "[3]; 100 nM, 2 days", "value": "toxic to 9L cells"}, {"measurement": "effect of co-expression of RED with P450 2B1 on Adriamycin cytotoxicity", "setting": "[3]; PR11 and PR7", "value": "large enhancement in Adriamycin cytotoxicity; also recorded: Enhanced cytotoxicity"}, {"measurement": "chemosensitization to Adriamycin in line PR1", "setting": "[3]; RED overexpression approximately 2-fold", "value": "more modest chemosensitization"}, {"measurement": "effect of RED overexpression alone on Adriamycin cytotoxicity", "setting": "[3]; line R26", "value": "did not enhance the cytotoxicity"}]}, {"smiles": "c1ccc2c(c1)[I+]c1ccccc1-2", "note": "[DPI, diphenyleneiodonium chloride]", "values": [{"measurement": "increase of cell survival ratio in CYP2B1+ RED+++ cells", "setting": "[2]", "value": "3-5 fold"}, {"measurement": "rescue of CYP2B1+ and CYP2B1+ RED+++ cells from CPA toxicity", "setting": "[2]", "value": "partially rescued"}, {"measurement": "inhibition at 5 µM", "setting": "[2]; Rattus norvegicus, read-out: growth inhibition in absence of CPA", "value": "~20", "unit": "%"}]}, {"smiles": "O=P1(NCCCl)OCCCN1CCCl", "note": "(stereo not shown) [IFA, ifosfamide]", "values": [{"measurement": "side effects of systemic distribution of drug and alkylating metabolites", "setting": "[4]", "value": "cardiotoxicity, renal toxicity, marrow suppression, and neurotoxoxicity"}, {"measurement": "cytotoxicity at 670 µM", "setting": "[5]; cell ratio 6:1, read-out: maximum bystander cytotoxicity", "value": "~50", "unit": "%"}, {"measurement": "cytotoxicity at 670 µM", "setting": "[5]; cell ratios up to 3:1, read-out: bystander cytotoxicity", "value": "≤ 25", "unit": "%"}]}, {"smiles": "Clc1cnc(Oc2ccc(Oc3ncc(Cl)cc3Cl)cc2)c(Cl)c1", "note": "[TCPOBOP, 1,4-bis-2-(3,5-dichloropyridyloxybenzene)]", "values": [{"measurement": "induction of human cytochrome P450s in colon and breast tumors", "setting": "[6]", "value": "profound inducer"}]}, {"smiles": "Nc1n[n+]([O-])c2ccccc2[n+]1[O-]", "note": "[TPZ, 3-amino-1,2,4-benzotriazine-1,4-di-N-oxide]", "values": [{"measurement": "effect of P450 2B6 and RED on TPZ cytotoxicity", "setting": "[7]", "value": "substantial increase in cytotoxicity"}, {"measurement": "effect of P450 2B6 expression alone on TPZ cytotoxicity", "setting": "[7]", "value": "no effect on the cytotoxicity"}, {"measurement": "effect of P450 2B6 on TPZ cytotoxicity", "setting": "[7]", "value": "Some enhanced cytotoxicity"}, {"measurement": "effect of RED gene transfer on TPZ sensitivity", "setting": "[7]", "value": "chemosensitized 9L tumor cells"}, {"measurement": "effect of RED gene transfer, with or without P450 2B6, on TPZ cytotoxicity", "setting": "[7]", "value": "increase in TPZ cytotoxicity"}, {"measurement": "intrinsic cytotoxicity under hypoxic vs normoxic conditions", "setting": "[7]", "value": "intrinsically more cytotoxic"}, {"measurement": "effect of TPZ on activity of CPA and other cancer chemotherapeutics", "setting": "[8]; in vivo", "value": "enhance the activity of CPA"}, {"measurement": "bone marrow toxicity with TPZ combination", "setting": "[8]; with CPA and other chemotherapeutics", "value": "corresponding increase in bone marrow toxicity"}]}, {"smiles": "CC(C)(C(=O)c1cccnc1)c1cccnc1", "note": "[metyrapone]", "values": [{"measurement": "blocking of CPA cytotoxicity toward CYP2B1+ cells", "setting": "[2]; 10 μM and higher, P3 and P17, FIG. 3", "value": "significantly blocked the cytotoxic effects"}, {"measurement": "inhibition of CPA cytotoxicity in RED-overexpressing CYP2B1+ cells", "setting": "[2]; 10 μM, FIG. 3", "value": "only slightly inhibited the cytotoxic effect"}, {"measurement": "blocking of CPA cytotoxicity toward CYP2B1+ cells", "setting": "[9]; 10 μM and higher, P3 and P17", "value": "significantly blocked the cytotoxic effects"}, {"measurement": "inhibition of CPA cytotoxicity in RED-overexpressing CYP2B1+ cells", "setting": "[9]; 10 μM", "value": "only slightly inhibited the cytotoxic effect"}]}, {"smiles": "NNC(N)=O", "note": "[semicarbazide]", "values": [{"measurement": "effect on cell viability", "setting": "[10]", "value": "no detectable effect on cell viability"}]}, {"smiles": "Nc1ccc(S(=O)(=O)Nc2ccnn2-c2ccccc2)cc1", "note": "[sulfaphenazole]", "values": [{"measurement": "effect on elimination of CPA", "setting": "[11]", "value": "slows the elimination of CPA"}, {"measurement": "inhibition of P450 2C9-catalyzed human liver CPA activation", "setting": "[12]", "value": "inhibits P450 2C9-catalyzed human liver CPA activation"}]}]}
